Data published in US20040057913A1, “Antioxidant and skin preparations for external use” (priority 2000, published 2004).

System: ICR male mouse
Assay: Mouse ear swelling suppressing activity (TPA-induced edema)
Assay type: in vivo
Details: applied to the ear 30 minutes before the TPA application; measured 4 hours after TPA; Mozuku extract 0.25 or 0.5 mg/ear, indomethacin 0.2 mg/ear (FIG. 4)
Experimental: Mouse ear swelling suppressing activity of the Mozuku extract was examined as follows. The thickness of the ear of an ICR male mouse (age: 5 weeks) was measured using a thickness gauge (Digimatic Indicator 543, manufactured by Mitsutoyo Co., Ltd.). The Mozuku extract was applied to the ear in the amount of 0.25 mg/ear or 0.5 mg/ear. As a comparative test, an indomethacin solution, prepared by dissolving indomethacin at a concentration of 1.0% in 70% acetone, was applied to the mouse ear in the amount of 0.2 mg/ear. 30 minutes after the application, 10 μl of a […] solution of 12-O-tetradecanoylphorbol-13-acetate (TPA) in 70% acetone was applied to the in and out sides of the mouse ear to induce a skin reaction. The thickness of the ear skin was measured after 4 hours at which the value of the swelling became the maximum. The ratio of the measured thickness to the thickness of the ear skin before the edema induction was calculated as the ratio of edema. The thickness of both the right and left ear skins was measured and the values were averaged to determine the ear skin thickness of the mouse.

Question: For `COc1ccc2c(c1)c(CC(=O)O)c(C)n2C(=O)c1ccc(Cl)cc1` [indomethacin], which “edema suppressing effect (ratio of edema, ear skin thickness)” value is on record?
Answer: remarkable edema suppressing effect
